Experimental data from patent publication US8685695B2, “Method for producing a mixture of bacteriophages and the use thereof in the therapy of antibiotic-resistant staphylococci” (priority 2008, dated 2014).
Like-named read-outs stand apart in the source and are kept apart here.

Legend:
[1] = system: S. aureus M.06.02.0071 (USA300, MRSA, ST8); format: in vivo, mouse; settings: for Percentage of surviving animals: antibiotics 2 × day
Method: A non-sensitive antibiotic (ciprofloxacin) and a sensitive antibiotic (vancomycin) were also used to allow a comparison to be made.
Four groups, each of 20 mice weighing approximately 25 g, were first subjected to immunosuppression to ensure that they would be adequately infected by S. aureus. The immunosuppression began with an application of cyclophosphamide 4 days before the bacterial infection. A further application of cyclophosphamide was carried out 1 day before, together with a once-only administration of cortisone. The immunosuppression with cyclophosphamide was repeated at intervals of 3 days.
The strain of S. aureus which was selected for the infection was resistant to this antibiotic.
The strain of S. aureus which was selected for the infection (internal designation M.06.02.0071) was an isolate which was supplied by the Robert-Koch-Institut of Wernigerode. This S. aureus is a member of the group of USA300 (MRSA, ST8) strains which are considered particularly virulent due to the presence of the virulence factor PVL.
On day 0, the mice had 1.5×10^7 CFU of the S. aureus applied to them intratrachially under anaesthetic.
The medicament, which was applied intratrachially under anaesthetic, was a one-off dose of 5.5×10^10 PFU of a 1:1 mixture of the bacteriophages DSM 18722 and DSM 18723 either one hour before the infection or one hour after the infection. One group, beginning 1 day before the infection, was also treated subcutaneously with vancomycin twice a day.
The main parameter was the determination of lethality as a function of the time elapsed since the start of the test. The length of the test was 14 days.

S. aureus M.06.02.0071 [2] = assay: Sensitivity of the strain to bacteriophages and antibiotics; format: cell-based, Staphylococcus aureus
[3] = system: S. aureus from tissue (M.06.02.0071, mouse pneumonia model); assay: Nanocalorimetric measurement of metabolism, bacteria isolated from lung tissue; format: cell-based, Staphylococcus aureus; settings: antibiotics 10 μg/ml, bacteriophages 4×10^9 PFU/ml
Method: (§1) Another sensitive method of examining the activity of micro-organisms is available in the form of nanocalorimetry. In this technique, metabolic action is measured by way of the heat it produces. The production of heat is measured from the voltage (in [p\/]) generated at thermocouples.
(§2) A detailed description of the measuring system used and the procedure can be found in: J. Lerchner et al., Thermochimica Acta 477, 2008, 48-53.
(§3) The concentration of the bacteriophages was 4×10^9 PFU/ml.

S. aureus M.06.02.0071 [4] = assay: Nanocalorimetric measurement of metabolism; format: cell-based, Staphylococcus aureus; settings: antibiotics 10 μg/ml; bacteriophages 4×10^9 PFU/ml
Method: as §1, §2, §3

S. aureus DSM 18421 [5] = assay: Nanocalorimetric measurement of metabolism; format: cell-based, Staphylococcus aureus; settings: antibiotics 10 μg/ml; bacteriophages 4×10^9 PFU/ml
Method: as §1, §2, §3

S. aureus DSM 18421 [6] = assay: Sensitivity of the strain to bacteriophages and antibiotics; format: cell-based, Staphylococcus aureus
[7] = system: Staphylococcus aureus DSM 18421; assay: Lysis of Staphylococcus aureus DSM 18421 in saliva (viable cell count); format: cell-based
Method: • Morning saliva (before breakfast and before cleaning of teeth) was collected from different individual persons. • The saliva samples were centrifuged for 5 min at room temperature at 12,000 rpm. • The supernatant liquid was removed and sterile filtered (0.8 μm pre-filter, then a 0.22 μm filter). • The samples of saliva were mixed 1:1 in a sterile vessel. 7.2 Incubation of the Preparations for Lysis • To the saliva prepared as described above were also added: • approx. 1×10^4 CFU/ml of DSM 18421 (from a suitable dilution of the overnight culture), • approx. 1×10^8 PFU/ml of phages (Simba Top, 1:1 mixture of purified M and K phages). • Used in addition were serralysin (100 U/ml), dornase (25 μml) or benzonase (25 μml) or a combination of these enzymes. • The enzymes were added right at the start of the incubation. • A control incubation was carried out at the same time in which the phages were replaced by adding the same volume of storage buffers (for composition see below). • The total volume of all the preparations was 2 ml. • The incubation was carried out in 10 ml glass penicillin bottles at 37° C. and 200 rpm (in a shaker incubator) 7.3 Determination of the Viable Cell Count (CFU/ml) After 6 h • After an incubation period of 6 h, an aliquot was taken from each preparation and a factor-of-ten dilution series prepared from it. • 2-5 suitable dilutions were selected from each dilution series and 2×100 μl (twin samples) of each were plated (with a Drigalski spatula). • The plating was performed onto LB agar in the case of the phage-free preparations and onto LB agar containing 0.01% citrate in the case of the preparations containing phages. • After at least 16 h of incubation at 37° C., the colony forming units (CFU's) were counted on each plate • Only plates which had at least 20 CFU's were used to calculate the FIGURE for CFU/ml • A representation in graph form was prepared by plotting CFU/ml (in logarithmic form) against the period of incubation.
Period of incubation: 6 hours Medium: saliva (human; mixture)

[8] = Table 10, 6 h, 37° C., phages approx. 1×10^8 PFU/ml, serralysin 100 U/ml

Molecule	Percentage of surviving animals ([1]; 0 hours after infection) [%]	Percentage of surviving animals ([1]; 5 hours after infection) [%]	Percentage of surviving animals ([1]; 19 hours after infection) [%]	Percentage of surviving animals ([1]; 23 hours after infection) [%]	Percentage of surviving animals ([1]; 29 hours after infection) [%]	Percentage of surviving animals ([1]; 43 hours after infection) [%]	Percentage of surviving animals ([1]; 47 hours after infection) [%]	Sensitivity of the strain, in words (S. aureus M.06.02.0071 [2])	% relative to control [3] [%]	Difference voltage [3] [μV]	Mortality in the acute phase, in words ([1]; bacteriophages one-off before the infection, vancomycin prior and thereafter continuous, compared with the placebo)	% relative to control (S. aureus M.06.02.0071 [4]) [%]	Difference voltage (S. aureus M.06.02.0071 [4]) [μV]	% relative to control (S. aureus DSM 18421 [5]) [%]	Difference voltage (S. aureus DSM 18421 [5]) [μV]	Sensitivity of the strain, in words (S. aureus DSM 18421 [6])	Effect on the colony count of S. aureus in saliva, in words ([7]; 6 h)	Colony count, % of control without phages [7, 8] [%]	Viable cell count [7, 8]
O=C(O)c1cn(C2CC2)c2cc(N3CCNCC3)c(F)cc2c1=O [Ciprofloxacin, ciprofloxacin]	100	100	60	45	35	10	10	resistant											
CN[C@H](CC(C)C)C(=O)N[C@H]1C(=O)N[C@@H](CC(N)=O)C(=O)N[C@H]2C(=O)N[C@H]3C(=O)N[C@H](C(=O)N[C@H](C(=O)O)c4cc(O)cc(O)c4-c4cc3ccc4O)[C@H](O)c3ccc(c(Cl)c3)Oc3cc2cc(c3O[C@@H]2O[C@H](CO)[C@@H](O)[C@H](O)[C@H]2O[C@H]2C[C@](C)(N)[C@H](O)[C@H](C)O2)Oc2ccc(cc2Cl)[C@H]1O [Vancomycin, vancomycin]								sensitive	61	−0.438	reduction in mortality	41	−4.132	36	−3.681	sensitive			
serralysin																	did not cause a reduction in the colony count	130	1.14 × 10^6 CFU/ml
